Common to all, as to format: cell-based, Chinese hamster
Experiment [1] has as its system CHO cells secreting an IgG-fusion protein. The experiment in a line: Shake flask CHO culture: SEC-HPLC of high molecular weight (HMW) species in secreted IgG-fusion protein. As for the experimental part: The CHO cell line used in this study was originally subcloned from DG44 parental cells and cultured in a protein-free proprietary growth medium. The host cells were genetically engineered to secrete an IgG-fusion protein under the control of CMV promoter.
The experiments were carried out in 250-mL shake flasks (VWR international) with starting volumes of 100 mL and initial cell densities of 6×10^5 cells/mL. Shake flasks were placed on a shaker platform (VWR international) at 150 rpm rotating speed. Cells were cultured under standard humidified condition at 37° C. and 6% CO2, for a ten-day duration with daily pH adjustment using 1M sodium carbonate, and fed with glucose and glutamine every two days in order to maintain them at certain level. Cell density, cell viability and substrates/metabolites were offline-analyzed by an automated cell counting system Cedex (Innovatis AG, Bielefeld, Germany) and a Bioprofile Analyzer 400 (Nova Biomedical Corporation, Waltham, Mass.). Supernatant from each culture harvest was collected for SEC analysis.
The main components of HMW species were dimers and trimers formed covalently or non-covalently and categorically considered to be protein aggregates.
In general terms: Size exclusion chromatography separates by hydrodynamic size, large species first.

The next experiment deals with CHO cells. The experiment in a line: Fed-batch 5-L bioreactor CHO culture: sialic acid content and N-linked sialylated species fraction. The following applies: 1 μM DEX bolus addition. As to the method: Bioreactor experiments were performed in 5-L bioreactors (Sartorius AG, Goettingen, Germany) with initial working volumes of 1.5 L. Agitation, pH, and dissolved oxygen were controlled at 150 rpm, 7.05, and 50% air saturation, respectively. Temperature was initially controlled at 37° C., but was shifted to a lower temperature during the culture to extend culture viability. The bioreactors were operated in fed-batch mode and were fed daily starting on day 3 with the proprietary feed medium to maintain adequate concentrations for glucose and other nutrients. Samples were taken during the cell culture process and analyzed for cell density, cell viability, substrates and metabolites.
The sialic acid to recombinant protein molar ratio was calculated by determining the sialic acid and recombinant protein concentrations. Sialic acid (SA), including N-Acetylneuraminic (Neu5Ac) and N-glycolylneuraminic acid (Neu5Gc), was released by partial acid hydrolysis. The derivatives were then separated by reversed-phase HPLC to determine sialic acid content. The protein concentrations were determined by UV absorbance at 280 nm. Sialic acid content is reported as molar ratios, which is the total moles of Neu5Ac and Neu5Gc per mole of recombinant glycoprotein. Sialic acid contents are reported as normalized values, which are the actual values divided by an arbitrary value. The same divisor was used to normalize all sialic acid content data in the studies reported here.
High-pH anion-exchange chromatography with pulsed amperometric detection (HPAEC-PAD) was used for the profiling of N-linked oligosaccharides (Base and Spellman 1990; Townsend and Hardy 1991) to provide information on site-specific N-linked glycosylation. N-linked oligosaccharides were cleaved from protein and separated on HPAEC-PAD into four domains based on the amount of sialic acid present. Domain I represents the asialo species. Domains II, III, and IV are sialylated species and represent monosialylated, disialylated, and tri- and tetrasialylated species, respectively. N-linked sialylated species fraction is reported as the percentage of N-linked sialylated species within the total N-linked oligosaccharides species, which includes both asialo and sialylated species. N-linked sialylated species fractions are reported as normalized values, which are the actual values divided by an arbitrary value. The same divisor was used to normalize all N-linked sialylated species fraction data in the studies reported here.
The bioreactors were operated as described in the methods section.

Another experiment relates to sialidase. The experiment is described as follows: Sialidase activity in culture supernatant (Amplex Red Neuraminidase assay). The following applies: 1 μM DEX from day 2, absorbance at 560 nm. As for the experimental part: Sialidase activity was analyzed using the Amplex Red Neuraminidase (Sialidase) Assay Kit (Invitrogen, Carlsbad, Calif.). Briefly, neuraminidase in the sample is used to desialylate fetuin. This assay utilizes Amplex Red to detect H2O2 generated by oxidation of the desialylated galactose residues on the fetuin by galactose oxidase. The H2O2, in the presence of HRP, reacts stoichiometrically with Amplex Red reagent to generate the red-fluorescent oxidation product, resorufin 5, which is then analyzed either fluorometrically or spectrophotometrically. In each assay, 50 μL of working solution (100 μM Amplex Red, 0.2 U/mL HRP, 4 U/mL galactose oxidase and 500 μg/mL fetuin) was added into each microplate well containing 50 μL of diluted cell culture supernatant. After 30 minutes incubation at 37° C., samples were analyzed for absorbance at 560 nm using a microplate reader.
As shown in FIG. 2A and FIG. 2B, increased sialidase activity was associated with the decreased cell viabilities in both the DEX-treated and untreated cultures.

Experiment [2] relates to CHO cell line with CTLA4Ig secretion. The experiment is described as follows: Shake flask culture of CHO cell line secreting CTLA4Ig: VCD and viability (Example 4). As to the method:
The CHO cell line used in this study was originally subcloned from DG44 parental cells and cultured in a proprietary chemical-defined growth medium.
The experiments were carried out in 250-mL shake flasks (VWR international) with starting volumes of 100 mL and initial cell densities of 6×10^5 cells/mL. The cultures were placed on a shaker platform (VWR international) at 150 rpm and maintained at 37° C. and 6% CO2 for ten days. The cultures were sampled daily and the pH was adjusted as needed using 1M sodium carbonate and fed with glucose and glutamine every two days in order to maintain them at adequate levels. […] Cell density and viability were measured offline using a Cedex automated cell counter (Innovatis AG, Bielefeld, Germany). Culture pH and concentrations for glucose and glutamine were measured off-line using a Bioprofile Analyzer 400 (Nova Biomedical Corporation, Waltham, Mass.). Supernatants from culture harvests were collected for analysis of sialic acid content and HMW level.
Cell viability for the untreated cultures decreased rapidly after Day 6 (FIG. 16B) and percent viability on day 10 was only 64.5%.

Molecules are shown by their SMILES.

Regarding `C[C@@H]1C[C@H]2[C@@H]3CCC4=CC(=O)C=C[C@]4(C)[C@@]3(F)[C@@H](O)C[C@]2(C)[C@@]1(O)C(=O)CO` [DEX, dexamethasone], the “decrease of percentage of HMW species” value in experiment [1] (0.1 μM DEX alone) is “approximately 17%”. In experiment [1] (1 μM DEX added day 2, supernatant day 10, vs control), the “reduction of protein aggregation (percentage of HMW species)” value came out at 15%. Also, in the experiment with CHO cells, the “change of sialylated fraction between days 8 to 14” value is on record as −7.7% and the “change of total sialic acid content between days 8 to 14” value is −7.8%. For the same compound, in the experiment on CHO cells (day 8), the “normalized N-linked sialylated species fraction” value was determined as 97.7±0.9 and the “normalized total sialic acid content” value is given as 17.9±0.1. Besides, in the experiment on CHO cells (day 14), the “increase of N-linked sialylated species fraction vs control” value is given as 15.8%, the “increase of total sialic acid content vs control” value is on record as 16.2%, the “normalized N-linked sialylated species fraction” value is on record as 90.2±1.3 and the “normalized total sialic acid content” value is 16.5±0.1. Also, the “absorbance measurement of sialidase activity” value in the experiment on sialidase (day 4) came out at 0.006±0.002. The “absorbance measurement of sialidase activity” value in the experiment with sialidase (day 10) came to 0.024±0.003. Also, the “final cell viability (day 10)” value in experiment [2] (0.001 μM DEX added day 2) is listed as 75.5%. In addition, the “final cell viability (day 10)” value in experiment [2] (10 μM DEX added day 2) came out at 82.3%.
